Experimental findings from PubChem BioAssay (NCI) are described below.

Several values for one entry are separate records, joined by “and”; a condition that tells them apart may be missing. Identical values can stand only once.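 96-well plates; 48 h exposure; 5 concentrations. Endpoints by linear interpolation between flanking doses. Not reached: highest tested concentration assigned. GI50 is the concentration that inhibits growth by half. TGI is the concentration that stops growth completely.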

The first experiment deals with NCI-H23 lung. In words: DTP human tumour cell line panel, 48 h.
`O=C(Nc1ccc(OC(F)(F)F)cc1)c1sccc1NCc1ccnc2ccccc12`: the GI50 (in general, the concentration that inhibits growth by half) is 2.18 µM and the TGI (usually the concentration giving total growth inhibition) was 19.6 µM.

As for `COc1ccc(-c2cc(-c3ccc(Cl)cc3)c(C#N)c(=O)n2CCCCC(=O)Nc2ccccc2N)cc1`, the GI50 is 12.7 µM and the TGI was 55.3 µM.

Take `CN1CCCN(CCNc2nccc(-c3c(-c4cccc(O)c4)nc4sccn34)n2)S1(=O)=O`: the GI50 is 11.1 µM and 14.4 µM; the TGI is 37.8 µM and 72.9 µM.

For the compound `CCOC(=O)c1c(NC(=O)c2ccc(C(C)C)cc2)sc2c(CN(C)C)c(O)ccc12`, the GI50 was 3.22 µM and the TGI is 13.3 µM.

As to `Cc1ccc(C(=O)Nc2ccc(CN3CCN(C)CC3)c(C(F)(F)F)c2)cc1C#Cc1cnc(N)c2ccc(F)cc12`, the GI50 is 0.584 µM and the concentration for total growth inhibition (TGI) was determined as 2.24 µM.

With `CC1(C)CCC(C)(C)c2cc(C(=O)Nc3ccc(C(=O)O)cc3)ccc21`, the TGI turned out to be 37.8 µM.

The compound `Clc1ccccc1NN(Cc1ccccn1)c1ccccc1Cl` came in with a TGI of 50.4 µM.

In the case of `Cc1cc2c(C(C)C)c(O)c(O)c(C=Nc3cc(C(F)(F)F)ccc3Cl)c2c(O)c1-c1c(C)cc2c(C(C)C)c(O)c(O)c(C=Nc3cc(C(F)(F)F)ccc3Cl)c2c1O`, the TGI is > 100 µM.

Take `CCCCN1C(=O)CC2[C@@H]3CCc4cc(OC)ccc4C3CC[C@]2(C)C1=O` (stereo not given in full): the TGI is > 10 µM.

Regarding `CC(CO)[C@H]1OC(=O)C=C2[C@@]13O[C@@H]3[C@H]1OC(=O)[C@@]3(C)[C@H]4O[C@H]4C[C@@]2(C)[C@@H]13` (stereo not given in full), the TGI is > 36.6 µM.

Take `COc1cc2cc(Oc3ccc(NC(=O)c4cccc(C(F)(F)F)c4)cc3)c(C)nc2cc1OC`: the GI50 is 4.11 µM and the TGI was > 100 µM.

Take `COc1cc(/C=C2\CN(C)CC3=C2Nc2nc(SC)[nH]c(=O)c2C3c2cc(OC)c(OC)c(OC)c2)cc(OC)c1OC` (stereo not given): the GI50 is 3.54 µM and the TGI is 15.8 µM.

On to `Cc1nc(SCC(N)=O)c2sc(=S)n(-c3ccccc3)c2n1`, for which the TGI was > 10 µM.

A further experiment deals with HCT-15 colon. In words: DTP human tumour cell line panel, 48 h.
With `O=C(Nc1ccc(OC(F)(F)F)cc1)c1sccc1NCc1ccnc2ccccc12`, the GI50 was 3.22 µM and the TGI was > 66.7 µM.

With `COc1ccc(-c2cc(-c3ccc(Cl)cc3)c(C#N)c(=O)n2CCCCC(=O)Nc2ccccc2N)cc1`, the GI50 is 3.03 µM and the TGI was found to be 13 µM.

`CN1CCCN(CCNc2nccc(-c3c(-c4cccc(O)c4)nc4sccn34)n2)S1(=O)=O`: the GI50 is 7.12 µM and 5.51 µM; the TGI was 75 µM and 98.4 µM.

Take `CCOC(=O)c1c(NC(=O)c2ccc(C(C)C)cc2)sc2c(CN(C)C)c(O)ccc12`: the GI50 is 1.17 µM and the TGI came to 2.74 µM.

Regarding `Cc1ccc(C(=O)Nc2ccc(CN3CCN(C)CC3)c(C(F)(F)F)c2)cc1C#Cc1cnc(N)c2ccc(F)cc12`, the GI50 was 0.112 µM and the total growth inhibition concentration (TGI) was 0.456 µM.

Take `CC1(C)CCC(C)(C)c2cc(C(=O)Nc3ccc(C(=O)O)cc3)ccc21`: the TGI was determined as 63 µM.

As for `Clc1ccccc1NN(Cc1ccccn1)c1ccccc1Cl`, the TGI was > 100 µM.

As for `Cc1cc2c(C(C)C)c(O)c(O)c(C=Nc3cc(C(F)(F)F)ccc3Cl)c2c(O)c1-c1c(C)cc2c(C(C)C)c(O)c(O)c(C=Nc3cc(C(F)(F)F)ccc3Cl)c2c1O`, the TGI was > 100 µM.

Turning to `CCCCN1C(=O)CC2[C@@H]3CCc4cc(OC)ccc4C3CC[C@]2(C)C1=O` (stereo not given in full), the TGI was > 10 µM.

`CC(CO)[C@H]1OC(=O)C=C2[C@@]13O[C@@H]3[C@H]1OC(=O)[C@@]3(C)[C@H]4O[C@H]4C[C@@]2(C)[C@@H]13` (stereo not given in full): the TGI was > 31 µM.

With `COc1cc2cc(Oc3ccc(NC(=O)c4cccc(C(F)(F)F)c4)cc3)c(C)nc2cc1OC`, the GI50 was 4.65 µM and the TGI is > 100 µM.

Take `COc1cc(/C=C2\CN(C)CC3=C2Nc2nc(SC)[nH]c(=O)c2C3c2cc(OC)c(OC)c(OC)c2)cc(OC)c1OC` (stereo not given): the GI50 is 2.07 µM and the concentration for total growth inhibition (TGI) is 4.79 µM.

In the case of `Cc1nc(SCC(N)=O)c2sc(=S)n(-c3ccccc3)c2n1`, the TGI is > 10 µM.

A further experiment has as its system MDA-MB-435. Nature of the experiment: DTP human tumour cell line panel, 48 h.
`O=C(Nc1ccc(OC(F)(F)F)cc1)c1sccc1NCc1ccnc2ccccc12`: the GI50 is 2.87 µM and the TGI was 18.7 µM.

With `COc1ccc(-c2cc(-c3ccc(Cl)cc3)c(C#N)c(=O)n2CCCCC(=O)Nc2ccccc2N)cc1`, the GI50 was 5.8 µM and the TGI is > 100 µM.

`CN1CCCN(CCNc2nccc(-c3c(-c4cccc(O)c4)nc4sccn34)n2)S1(=O)=O`: the GI50 was 0.285 µM and 0.438 µM; the TGI was 20.6 µM and > 71.8 µM.

As to `CCOC(=O)c1c(NC(=O)c2ccc(C(C)C)cc2)sc2c(CN(C)C)c(O)ccc12`, the GI50 is 1.77 µM and the TGI is 3.37 µM.

Regarding `Cc1ccc(C(=O)Nc2ccc(CN3CCN(C)CC3)c(C(F)(F)F)c2)cc1C#Cc1cnc(N)c2ccc(F)cc12`, the GI50 was 0.123 µM and the TGI worked out at 0.47 µM.

Turning to `CC1(C)CCC(C)(C)c2cc(C(=O)Nc3ccc(C(=O)O)cc3)ccc21`, the TGI is > 74.3 µM.

`Clc1ccccc1NN(Cc1ccccn1)c1ccccc1Cl` returned a TGI of 34.9 µM.

The compound `Cc1cc2c(C(C)C)c(O)c(O)c(C=Nc3cc(C(F)(F)F)ccc3Cl)c2c(O)c1-c1c(C)cc2c(C(C)C)c(O)c(O)c(C=Nc3cc(C(F)(F)F)ccc3Cl)c2c1O` showed a TGI of 86 µM.

As for `CCCCN1C(=O)CC2[C@@H]3CCc4cc(OC)ccc4C3CC[C@]2(C)C1=O` (stereo not given in full), the TGI was > 10 µM.

In turn, `CC(CO)[C@H]1OC(=O)C=C2[C@@]13O[C@@H]3[C@H]1OC(=O)[C@@]3(C)[C@H]4O[C@H]4C[C@@]2(C)[C@@H]13` (stereo not given in full) registered a TGI of 18.4 µM.

In the case of `COc1cc2cc(Oc3ccc(NC(=O)c4cccc(C(F)(F)F)c4)cc3)c(C)nc2cc1OC`, the GI50 is 5.39 µM and the TGI was > 100 µM.

In the case of `COc1cc(/C=C2\CN(C)CC3=C2Nc2nc(SC)[nH]c(=O)c2C3c2cc(OC)c(OC)c(OC)c2)cc(OC)c1OC` (stereo not given), the GI50 is 2.51 µM and the TGI worked out at 8.46 µM.

Regarding `Cc1nc(SCC(N)=O)c2sc(=S)n(-c3ccccc3)c2n1`, the TGI was > 10 µM.

Another experiment relates to NCI-H226 lung. In words: DTP human tumour cell line panel, 48 h.
As for `O=C(Nc1ccc(OC(F)(F)F)cc1)c1sccc1NCc1ccnc2ccccc12`, the GI50 is 2.89 µM and the concentration for total growth inhibition (TGI) was > 90.6 µM.

On to `COc1ccc(-c2cc(-c3ccc(Cl)cc3)c(C#N)c(=O)n2CCCCC(=O)Nc2ccccc2N)cc1`, for which the GI50 was 6.26 µM and the TGI was determined as 70.9 µM.

For the compound `CN1CCCN(CCNc2nccc(-c3c(-c4cccc(O)c4)nc4sccn34)n2)S1(=O)=O`, the GI50 is 15.3 µM and 11.3 µM; the TGI is 50 µM and 54.5 µM.

As for `CCOC(=O)c1c(NC(=O)c2ccc(C(C)C)cc2)sc2c(CN(C)C)c(O)ccc12`, the GI50 is 2.19 µM and the concentration for total growth inhibition (TGI) was found to be 6.48 µM.

With `Cc1ccc(C(=O)Nc2ccc(CN3CCN(C)CC3)c(C(F)(F)F)c2)cc1C#Cc1cnc(N)c2ccc(F)cc12`, the GI50 is 0.737 µM and the total growth inhibition concentration (TGI) was determined as 3.66 µM.

Turning to `CC1(C)CCC(C)(C)c2cc(C(=O)Nc3ccc(C(=O)O)cc3)ccc21`, the TGI is > 65.5 µM.

For `Clc1ccccc1NN(Cc1ccccn1)c1ccccc1Cl`, the TGI came out at 31.6 µM.

`Cc1cc2c(C(C)C)c(O)c(O)c(C=Nc3cc(C(F)(F)F)ccc3Cl)c2c(O)c1-c1c(C)cc2c(C(C)C)c(O)c(O)c(C=Nc3cc(C(F)(F)F)ccc3Cl)c2c1O` displayed a TGI of 95.4 µM.

Regarding `CCCCN1C(=O)CC2[C@@H]3CCc4cc(OC)ccc4C3CC[C@]2(C)C1=O` (stereo not given in full), the concentration for total growth inhibition (TGI) was > 10 µM.

The compound `CC(CO)[C@H]1OC(=O)C=C2[C@@]13O[C@@H]3[C@H]1OC(=O)[C@@]3(C)[C@H]4O[C@H]4C[C@@]2(C)[C@@H]13` (stereo not given in full) gave a total growth inhibition concentration (TGI) of 5.47 µM. This lies in the single-digit micromolar range.

Take `COc1cc2cc(Oc3ccc(NC(=O)c4cccc(C(F)(F)F)c4)cc3)c(C)nc2cc1OC`: the GI50 is 7.84 µM and the TGI was > 100 µM.

For the compound `COc1cc(/C=C2\CN(C)CC3=C2Nc2nc(SC)[nH]c(=O)c2C3c2cc(OC)c(OC)c(OC)c2)cc(OC)c1OC` (stereo not given), the GI50 was 6.17 µM and the TGI amounted to 22.2 µM.

In the case of `Cc1nc(SCC(N)=O)c2sc(=S)n(-c3ccccc3)c2n1`, the concentration for total growth inhibition (TGI) is > 10 µM.

A further experiment relates to OVCAR-5 ovarian. Nature of the experiment: DTP human tumour cell line panel, 48 h.
As to `O=C(Nc1ccc(OC(F)(F)F)cc1)c1sccc1NCc1ccnc2ccccc12`, the GI50 is 7.73 µM and the TGI was > 100 µM.

With `COc1ccc(-c2cc(-c3ccc(Cl)cc3)c(C#N)c(=O)n2CCCCC(=O)Nc2ccccc2N)cc1`, the GI50 was 10.8 µM and the TGI was > 100 µM.

On to `CN1CCCN(CCNc2nccc(-c3c(-c4cccc(O)c4)nc4sccn34)n2)S1(=O)=O`, for which the GI50 was 27 µM and 32.3 µM; the TGI is 75 µM and > 100 µM.

For `CCOC(=O)c1c(NC(=O)c2ccc(C(C)C)cc2)sc2c(CN(C)C)c(O)ccc12`, the GI50 is 2.92 µM and the TGI turned out to be 9.49 µM.

Take `Cc1ccc(C(=O)Nc2ccc(CN3CCN(C)CC3)c(C(F)(F)F)c2)cc1C#Cc1cnc(N)c2ccc(F)cc12`: the GI50 was 0.694 µM and the TGI was determined as 2.7 µM.

Take `CC1(C)CCC(C)(C)c2cc(C(=O)Nc3ccc(C(=O)O)cc3)ccc21`: the TGI was > 100 µM.

As for `Clc1ccccc1NN(Cc1ccccn1)c1ccccc1Cl`, the TGI is 45.7 µM.

As for `Cc1cc2c(C(C)C)c(O)c(O)c(C=Nc3cc(C(F)(F)F)ccc3Cl)c2c(O)c1-c1c(C)cc2c(C(C)C)c(O)c(O)c(C=Nc3cc(C(F)(F)F)ccc3Cl)c2c1O`, the TGI is > 100 µM.

With `CCCCN1C(=O)CC2[C@@H]3CCc4cc(OC)ccc4C3CC[C@]2(C)C1=O` (stereo not given in full), the TGI is > 10 µM.

Consider `CC(CO)[C@H]1OC(=O)C=C2[C@@]13O[C@@H]3[C@H]1OC(=O)[C@@]3(C)[C@H]4O[C@H]4C[C@@]2(C)[C@@H]13` (stereo not given in full), for which the TGI was > 87.9 µM.

For the compound `COc1cc2cc(Oc3ccc(NC(=O)c4cccc(C(F)(F)F)c4)cc3)c(C)nc2cc1OC`, the GI50 is > 100 µM and the TGI is > 100 µM.

As to `COc1cc(/C=C2\CN(C)CC3=C2Nc2nc(SC)[nH]c(=O)c2C3c2cc(OC)c(OC)c(OC)c2)cc(OC)c1OC` (stereo not given), the GI50 is 4.83 µM and the TGI worked out at 16.7 µM.

As to `Cc1nc(SCC(N)=O)c2sc(=S)n(-c3ccccc3)c2n1`, the TGI is > 10 µM.
